Here are results for 5 molecules from paper PMC9081605, “A High-Throughput Toxicity Screen of 42 Per- and Polyfluoroalkyl Substances (PFAS) and Functional Assessment of Migration and Gene Expression in Human Placental Trophoblast Cells” (Frontiers in Toxicology, 2022).

Experiment [1] has as its system JEG-3 cells. The experiment is described as follows: CellTiter-Glo luminescent cell viability assay (HTTS). The class given is cell-based, human. The conditions noted are these: for Viability ↓, lowest concentration at which the mean response value exceeded the mean control value ± 2*SD (rough binning): decrease; for cell viability relative to vehicle control (rough binning): after 24 h, in at least one concentration. The method in brief:
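JEG-3 cells (2,500/well) adhered overnight, then exposed 24 h to PFAS (methanol stocks; vehicle 2.5% methanol, top concentration 500 µM). Viability read by CellTiter-Glo ATP luminescence in the same wells as mitochondrial membrane potential; wells with 0 h confluence <20% or >80% excluded.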
On the technique in general: Cellular ATP, detected with luciferase, serves as a proxy for viable cell number.

Experiment [2] deals with JEG-3 cells. Description: Mitochondrial membrane potential, JC-10 assay (HTTS). It is filed as cell-based, human. The conditions noted are these: for MMP ↓, lowest concentration at which the mean response value exceeded the mean control value ± 2*SD (rough binning): 24 h, decrease; for EC50: four-parameter fit, estimates meeting inclusion criteria; for MMP relative to vehicle control (rough binning): after 24 h, in at least one concentration. Put shortly: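 JEG-3 cells seeded at 2,500 per well were exposed to PFAS for 24 h at 37 °C, with 2.5% methanol vehicle. After a PBS wash, 20 μM JC-10 was added for 1 h at 37 °C. Membrane potential was taken as the green (490/525 nm) to red (540/590 nm) fluorescence ratio.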

Setting [3] is: JEG-3 cells, 24 h exposure, four-parameter fit, estimates meeting inclusion criteria, read-out: Viability EC50 ± SD.
Where [4] appears, read: JEG-3 cells, 24 h exposure, read-out: MMP EC50 ± SD.
[5] abbreviates: Homo sapiens, JEG-3, 24 h, read-out: Viability EC50 ± SD, JEG-3 cells, 24 h exposure, four-parameter fit, estimates meeting inclusion criteria.
Setting [6] is: Homo sapiens, JEG-3, 24 h, read-out: MMP EC50 ± SD, JEG-3 cells, 24 h exposure.

With `N.O=C(O)C(F)(OC(F)(F)C(F)(F)C(F)(F)F)C(F)(F)F` (stereo not shown) [Ammonium perfluoro-2-methyl-3-oxahexanoate], the “Viability ↓, lowest concentration at which the mean response value exceeded the mean control value ± 2*SD (rough binning)” value in the experiment with JEG-3 cells [1] (JEG-3 cells, 24 h) was 350 µM. For the same molecule, the “cell viability relative to vehicle control (rough binning)” value in the experiment on JEG-3 cells [1] was “reduced cell viability”.

With `O=C(O)C(F)(F)C(F)(F)C(F)(F)C(F)(F)C(F)(F)C(F)(F)C(F)(F)C(F)(F)F` [Perfluorononanoic acid], in the experiment on JEG-3 cells [1] (JEG-3 cells, 24 h), the “Viability ↓, lowest concentration at which the mean response value exceeded the mean control value ± 2*SD (rough binning)” value was 350 µM. For the same molecule, the figures for the EC50 in the experiment with JEG-3 cells [1] (setting [3]) and in the experiment on JEG-3 cells [2] (setting [4]) were 333 ± 10.3 µM and 305 ± 13.6 µM, respectively. In the experiment with JEG-3 cells [1], the “cell viability relative to vehicle control (rough binning)” value was “reduced cell viability”. For the same molecule, in the experiment with JEG-3 cells [2] (JEG-3 cells), the “MMP ↓, lowest concentration at which the mean response value exceeded the mean control value ± 2*SD (rough binning)” value was 300 µM. For the same molecule, in the experiment on JEG-3 cells [2], the “MMP relative to vehicle control (rough binning)” value (“MMP relative to vehicle control” for short) is “reduced MMP”.

As for `NS(=O)(=O)C(F)(F)C(F)(F)C(F)(F)C(F)(F)C(F)(F)C(F)(F)C(F)(F)C(F)(F)F` [Perfluorooctanesulfonamide], the EC50 (in general, the midpoint of the concentration-response curve) in the experiment with JEG-3 cells [1] (setting [5]) was 175 ± 4.9 µM; in the experiment on JEG-3 cells [1] (Homo sapiens, JEG-3, 24 h, read-out: viability EC50 ± SE, JEG-3 cells, 24 h) it was 176 ± 5 µM; in the experiment with JEG-3 cells [1] (read-out: Viability EC50 ± SD, JEG-3 cells, 24 h exposure, four-parameter fit, estimates meeting inclusion criteria) it was 176 ± 4.9 µM; with JEG-3 cells [2] (setting [6]), 227 ± 370 µM.

As for `O=S(=O)(O)C(F)(F)C(F)(F)C(F)(F)C(F)(F)C(F)(F)C(F)(F)C(F)(F)C(F)(F)F` [Perfluorooctanesulfonic acid], the “Viability ↓, lowest concentration at which the mean response value exceeded the mean control value ± 2*SD (rough binning)” value in the experiment with JEG-3 cells [1] (JEG-3 cells, 24 h) was 300 µM. For the same molecule, the 50% effective concentration (EC50) is 291 µM in the experiment with JEG-3 cells [1] (JEG-3 cells, 24 h exposure, four-parameter fit, estimates meeting inclusion criteria, listed as PFOS, read-out: Viability EC50 ± SD); 291 ± 9.1 µM in the experiment on JEG-3 cells [1] (setting [3]); 353 µM with JEG-3 cells [2] (JEG-3 cells, 24 h exposure, listed as PFOS, read-out: MMP EC50 ± SD); 353 ± 6.7 µM in the experiment on JEG-3 cells [2] (setting [4]). Further, the “cell viability relative to vehicle control (rough binning)” value in the experiment with JEG-3 cells [1] is reported as “reduced cell viability”. For the same molecule, in the experiment on JEG-3 cells [2] (JEG-3 cells), the “MMP ↓, lowest concentration at which the mean response value exceeded the mean control value ± 2*SD (rough binning)” value was 350 µM. The “MMP relative to vehicle control” value in the experiment on JEG-3 cells [2] is “reduced MMP”.

Take `O=C(O)C(F)(F)C(F)(F)C(F)(F)C(F)(F)C(F)(F)C(F)(F)C(F)(F)F` [Perfluorooctanoic acid]: the EC50 was 358 ± 16.9 µM in the experiment on JEG-3 cells [1] (setting [5]) and 360 ± 18 µM with JEG-3 cells [2] (setting [6]). The “Viability ↑, lowest concentration at which the mean response value exceeded the mean control value ± 2*SD (rough binning)” value with JEG-3 cells [1] (JEG-3 cells, 24 h, increase) is given as 200 µM. Besides, the minimal effective concentration in the experiment with JEG-3 cells [2] (Homo sapiens, JEG-3, 24 h, read-out: MMP ↓, lowest concentration at which the mean response value exceeded the mean control value ± 2*SD (rough binning)) came to 450 µM. The “MMP relative to vehicle control” value with JEG-3 cells [2] is on record as “reduced MMP”.
